Test results as given in patent US6063777A, “Iminochlorinaspartic acid derivatives” (Wyeth Lederle Japan, Ltd., priority 1996, dated 2000).
Converted amounts (≈) assume the structure as drawn.

What was measured:
albumin = assay: Albumin test (change in UV absorption spectrum in mixture with albumin); assay type: binding
From the text: (§1) When compound (I) was examined by albumin test [that is, a convenient test method for evaluating the affinity to cancerous tissues, in which a chlorin derivative is examined on the change in ultraviolet (UV) absorption spectrum in a mixture form with albumin and in which one of the present inventors has found a certain rule] and dancyl methionine test [that is, a convenient test method for evaluating the strength of the photoreactivity by thin layer chromatography (TLC) or high performance liquid chromatography (HPLC)]

[1] = test system: choroidal arteries and veins; assay: Occlusion of choroidal arteries and veins by PDT, histological findings 24 hours after laser irradiation; assay type: in vivo, rats (Long Evance Rats); details: 16 mg/kg
Procedure: (§2) The following experiments were performed to investigate the optimal treatment parameters (timing of laser irradiation after dosing of the compound; laser irradiation dosage) for selective occlusion of choroidal neoplastic vessels by PDT using the compound of the present invention and a diode laser (produced by Hamamatsu Photonics; wavelength: 672 nm).
(§3) Photocoagulation was induced in rats (Long Evance Rats weighing 200-300 g) by Argon green laser irradiation (irradiation diameter: 100 μm, 140 mW, 0.1 sec) near the retinal papilla on funduc oculi. Ten days after photocoagulation, fundus photographs and fluorescein angiographs were taken and the animals showing development of choroidal neovascularization were used for experiments at the 11th day.
(§4) The compound of the present invention was administered via the tail vein at a dose of 16 mg/kg. After administration, time course distribution of the compound in the eyeball tissues was observed by fluorescence microscopy.
(§5) Laser irradiation was done by using the above-mentioned diode laser. The laser beam was confirmed to extend in the range of 500 μm in diameter on the retinal surface. Duration of irradiation was 4 minutes and the irradiation intensity varied at 30.6, 91.7, 152.9 and 244.9 mW/cm^2 on the retinal surface. These values correspond to 7.4, 22.0, 36.7 and 58.8 J/cm^2, respectively.
(§6) Assessment of the PDT using the compound of the present invention was made based on the fundus photographs taken with a fundus camera (produced by Jenesis Kowa) at 1 hour and 24 hours after laser irradiation. Occlusion of the neoplastic vessels and damage to the surrounding tissues were investigated by fluorescein antiography and histological examinations to assess the selectivity of the therapeutic effect.

choriocapillaris = assay: Occlusion of choriocapillaris by PDT, histological findings 24 hours after laser irradiation; assay type: in vivo, rats (Long Evance Rats); details: 16 mg/kg
Procedure: as §2, §3, §4, §5, §6

HeLa cells = assay: HeLa cell survival after diode laser (670 nm) irradiation, MTS-PMS reagent; assay type: cell-based
Procedure: HeLa cells were seeded in wells of a 96-well plate each containing 100 μl of a culture medium at 5×10^3 /well, and incubated at 37° C. overnight. In each well, the culture medium was removed, and 100 μl of a solution containing sodium salt of either of compound (I) or compound (II) in concentrations of 0, 6.25, 12.5, 25, 50 and 100 μM/ml was added (3 wells for each group of the concentrations) and incubated at 37° C. at for 6 hrs. Each well was washed with PBS(-) once, and then 100 μl of a fresh medium was added. The wells were irradiated using a diode laser (670 nm) under the conditions of 0.44W of laser intensity, 0.785 cm^2 of irradiation area (diameter: 1 cm) and 25 J/cm^2 of laser energy. After the irradiation, each well was incubated at 37° C. overnight and washed with PBS(-) once, then 100 μl of a fresh medium was added. To each well was added 20 μl of MTS-PMS reagent, and the well was further incubated at 37° C. for 2-4 hrs. The absorbance of each well at 492 nm was measured using a microplate reader. The cell survival rate at each of the above mentioned concentrations of the test compound was calculated considering the value for the well of 0 μM/ml of the test compound as 100%.

[2] = Stability in vivo and in vitro
[3] = Phosphorescence life time; assay type: physicochemical
Water solubility = assay type: physicochemical
[4] = Dancyl methionine test (photoreactivity by TLC or HPLC)
From the text: as §1

[5] = Preliminary experiments: blood half-life after intravenous administration; assay type: in vivo; details: rats and rabbits
[6] = test system: choroidal neoplastic vessels; assay: Occlusion of choroidal neoplastic vessels by PDT, histological findings 24 hours after laser irradiation; assay type: in vivo, rats (Long Evance Rats); details: for Occlusion of choroidal neoplastic vessels: 16 mg/kg
Procedure: as §2, §3, §4, §5, §6

cancerous tissues = assay: Accumulability to cancerous tissues and excretion from normal tissues (general findings); assay type: in vivo
[7] = Absorption wavelength / molar absorption coefficient; assay type: physicochemical
[8] = 7.4 J/cm^2, irradiation 60 min after administration
[9] = 7.4 J/cm^2, irradiation 120 min after administration
[10] = 7.4 J/cm^2, irradiation 240 min after administration
[11] = 22.0 J/cm^2, irradiation 60 min after administration
[12] = 22.0 J/cm^2, irradiation 120 min after administration
[13] = 22.0 J/cm^2, irradiation 240 min after administration
[14] = 36.7 J/cm^2, irradiation 60 min after administration
[15] = 36.7 J/cm^2, irradiation 120 min after administration
[16] = 36.7 J/cm^2, irradiation 240 min after administration
[17] = 36.7 J/cm^2, irradiation immediately after administration
[18] = 58.8 J/cm^2, irradiation 60 min after administration
[19] = 58.8 J/cm^2, irradiation 120 min after administration
[20] = 58.8 J/cm^2, irradiation 240 min after administration
[21] = 58.8 J/cm^2, irradiation immediately after administration
[22] = 7.4 J/cm^2, irradiation immediately after administration
[23] = 22.0 J/cm^2, irradiation immediately after administration

For `C=Cc1c(C)c2cc3nc(cc4[nH]c(cc5nc(cc1[nH]2)C(C)=C5CCC(=O)NC(CC(=O)O)C(=O)O)c(CCC(=O)NC(CC(=O)O)C(=O)O)c4C)C(C)(O)C3=CC=NO` (stereo not drawn) [Compound (I)], the affinity to albumin (albumin) was “good affinity to albumin”, the “transferability to cancerous tissues (albumin test)” value (albumin) was “excellent transferability to cancerous tissues” and the “Occlusion of choroidal arteries and veins” value [1, 8] was “Closed”. The “Occlusion of choroidal arteries and veins” value [1, 9] was “Open”, the “Occlusion of choroidal arteries and veins” value [1, 10] was “Open” and the “Occlusion of choroidal arteries and veins” value [1, 11] was “Closed”. For the same molecule, the “Occlusion of choroidal arteries and veins” value [1, 12] was “Open”, the “Occlusion of choroidal arteries and veins” value [1, 13] was “Open” and the “Occlusion of choroidal arteries and veins” value [1, 14] was “Closed”. For the same molecule, the “Occlusion of choroidal arteries and veins” value [1, 15] was “Open”, the “Occlusion of choroidal arteries and veins” value [1, 16] was “Open” and the “Occlusion of choroidal arteries and veins” value [1, 17] was “Closed”. The “Occlusion of choroidal arteries and veins” value [1, 18] was “Closed”, the “Occlusion of choroidal arteries and veins” value [1, 19] was “Open” and the “Occlusion of choroidal arteries and veins” value [1, 20] was “Open”. The “Occlusion of choroidal arteries and veins” value [1, 21] was “Closed”, the Occlusion of choriocapillaris (choriocapillaris; [8]) was “Closed” and the Occlusion of choriocapillaris (choriocapillaris; [9]) was “Open”. For the same molecule, the Occlusion of choriocapillaris (choriocapillaris; [10]) was “Open”, the Occlusion of choriocapillaris (choriocapillaris; [22]) was “Closed” and the Occlusion of choriocapillaris (choriocapillaris; [11]) was “Closed”. For the same molecule, the Occlusion of choriocapillaris (choriocapillaris; [12]) was “Closed”, the Occlusion of choriocapillaris (choriocapillaris; [13]) was “Closed” and the Occlusion of choriocapillaris (choriocapillaris; [23]) was “Closed”. For the same molecule, the Occlusion of choriocapillaris (choriocapillaris; [14]) was “Closed”, the Occlusion of choriocapillaris (choriocapillaris; [15]) was “Closed” and the Occlusion of choriocapillaris (choriocapillaris; [16]) was “Closed”. The Occlusion of choriocapillaris (choriocapillaris; [17]) was “Closed”, the Occlusion of choriocapillaris (choriocapillaris; [18]) was “Closed” and the Occlusion of choriocapillaris (choriocapillaris; [19]) was “Closed”. For the same molecule, the Occlusion of choriocapillaris (choriocapillaris; [20]) was “Closed”, the Occlusion of choriocapillaris (choriocapillaris; [21]) was “Closed” and the “cell destructing effect induced by a photosensitizing reaction” value (HeLa cells) was “strong cell destructing effect induced by a photosensitizing reaction”. For the same molecule, the viability at 6.25 µM (HeLa cells; Homo sapiens, HeLa, light or radiation study, 6.25 μM, sodium salt, 6 hrs, 670 nm, 25 J/cm^2, read-out: Cell Survival Rate) was 43%, the viability at 12.5 µM (HeLa cells; Homo sapiens, HeLa, light or radiation study, 12.5 μM, sodium salt, 6 hrs, 670 nm, 25 J/cm^2, read-out: Cell Survival Rate) was 19% and the viability at 25 µM (HeLa cells; Homo sapiens, HeLa, light or radiation study, 25 μM, sodium salt, 6 hrs, 670 nm, 25 J/cm^2, read-out: Cell Survival Rate) was 13%. For the same molecule, the viability at 50 µM (HeLa cells; Homo sapiens, HeLa, light or radiation study, 50 μM, sodium salt, 6 hrs, 670 nm, 25 J/cm^2, read-out: Cell Survival Rate) was 10%, the viability at 100 µM (HeLa cells; Homo sapiens, HeLa, light or radiation study, 100 μM, sodium salt, 6 hrs, 670 nm, 25 J/cm^2, read-out: Cell Survival Rate) was 10% and the “cell killing effect against tumor cells” value (HeLa cells; compared with position isomer) was “remarkably higher cell killing effect against tumor cells compared with the position isomer”. For the same molecule, the “stability in vivo and in vitro” value [2] was “high stability in vivo, as well as in vitro”, the phosphorescence life time [3] was “long phosphorescence life time” and the water solubility (Water solubility) was “good water solubility”. For the same molecule, the solubility (Water solubility; water, aqueous solution, read-out: high concentration solution (water solubility)) was 50 mg/mL (≈ 59.5 mM), the “photosensitivity (dancyl methionine test)” value [4] was “strong photosensitivity” and the “cell killing effect when exposed to light” value ([4]; dancyl methionine test) was “good cell killing effect when exposed to light”. For the same molecule, the compound in blood ([5]; after 24 hours, intravenous) was “undetectable in blood after 24 hours”, the half-life ([5]; blood, intravenous administration) was 30 min and the “Occlusion of choroidal neoplastic vessels” value [6, 8] was “Closed”. For the same molecule, the “Occlusion of choroidal neoplastic vessels” value [6, 22] was “Closed”, the “selective occlusion of choroidal neoplastic vessels and choriocapillaris” value ([6]; 7.4 J/cm^2 immediately after administration) was “selective occlusion of the choroidal neoplastic vessels and choriocapillaris was achieved without causing serious damage to the retinal capillaries and choroidal arteries and veins” and the “Occlusion of choroidal neoplastic vessels” value [6, 11] was “Closed”. The “Occlusion of choroidal neoplastic vessels” value [6, 12] was “Closed”, the “Occlusion of choroidal neoplastic vessels” value [6, 13] was “Closed” and the “Occlusion of choroidal neoplastic vessels” value [6, 23] was “Closed”. The “selective occlusion of choroidal neoplastic vessels and choriocapillaris” value ([6]; 22.0 J/cm^2 at 2-4 hours after administration) was “selective occlusion of the choroidal neoplastic vessels and choriocapillaris was achieved without causing serious damage to the retinal capillaries and choroidal arteries and veins”, the “Occlusion of choroidal neoplastic vessels” value [6, 14] was “Closed” and the “Occlusion of choroidal neoplastic vessels” value [6, 15] was “Closed”. The “Occlusion of choroidal neoplastic vessels” value [6, 16] was “Closed”, the “Occlusion of choroidal neoplastic vessels” value [6, 17] was “Closed” and the “Occlusion of choroidal neoplastic vessels” value [6, 18] was “Cldsed”. The “Occlusion of choroidal neoplastic vessels” value [6, 19] was “Closed”, the “Occlusion of choroidal neoplastic vessels” value [6, 20] was “Closed” and the “Occlusion of choroidal neoplastic vessels” value [6, 21] was “Closed”. The “accumulability to cancerous tissues” value (cancerous tissues; compared with compound of formula (II)) was “remarkably superior accumulability to cancerous tissues as compared with the compound of formula (II)”, the “excretion from normal tissues” value (cancerous tissues; in vivo) was “quick excretion property from normal tissues” and the “longest wavelength absorption end” value [7] was ≥ 670 nm.
